Results published in EP4653001A1, “TREATMENT, DIAGNOSIS AND/OR PROGNOSIS OF MITOCHONDRIAL DISEASES” (Universidad Autónoma de Madrid, priority 2024, dated 2025).

Legend:
Format in all cases: cell-based
[1] = test system: 143B cells; assay: Metabolomics of intracellular metabolites in 143B cells; details: 48 h
Experimental: 1-5.0×10^6 cells were harvested on dry ice with 1 mL pre-chilled 80% HPLC-grade methanol (Fluka Analytical). The cell mixture was incubated for 15 min on dry ice prior to centrifugation at 18,000 × g for 10 min at 4°C. The supernatant was retained, and the remaining cell pellet was resuspended in 800 µL chilled 80% methanol and centrifuged. Supernatant was combined with the previous retention and was lyophilized using a SpeedVac (Thermo Fisher). Lyophilized samples were resuspended in 20 µL ultrapure water and subjected to metabolomics profiling using the AB/SCIEX 5500 QTRAP triple quadrupole instrument. Data analysis was performed using the GiTools software. 13C-labeled glutamine and glucose was acquired in SIGMA (605166 and 389374).
Next, we conducted time-course experiments to gain further knowledge on the metabolic determinants underlying the observed synthetic lethality between PPP and OXPHOS. 143B cells were treated either with Piericidin or G6PDi (selective inhibitor of G6PD) alone or the combination of both and cell proliferation was quantified over the course of 96 h. […] Conversely, dual inhibition produced a marked reduction in cell survival beyond 48 h of treatment that was even more accentuated at 96 h (Figure 2A). […]

[2] = test system: mouse cortical neurons; assay: PPP activity measurement in cortical neurons
Experimental: Primary cultures of C57BL/6 mouse cortical neurons were prepared from embryos between embryonic days 16.5 and 17.5 and seeded onto pre-treated plates coated with Poly-L-lysine hydrobromide (500 µg/ml). We used Neurobasal medium without D-glucose and sodium pyruvate (ThermoFisher) to modulate D-glucose levels, depending on the experiment (2.5 mM, 5 mM, or 25 mM).
The determination of pentose-phosphate pathway (PPP) activity was conducted by assessing the difference between 14CO2 production from 1-14C-glucose, which decarboxylates through the 6-phosphogluconate dehydrogenase-catalyzed reaction, and that of 6-^14C-glucose, which decarboxylates through the tricarboxylic acid cycle.
Increased lactate secretion is considered a good indicator of enhanced glycolytic rates, which is a common feature of ETC-inhibited cells as they switch from OXPHOS to glycolysis to maintain ATP levels. […] We culture 143B cells in the presence of Piericidin for 24 h and PPP activity and lactate release, as a proxy of glycolysis, were measured. As expected, lactate detection in the media was higher in CI-inhibited cells. […] Next, we wonder if in this context, glucose can be overused by glycolysis and therefore diverted away from the PPP. Diseases associated with impaired mitochondrial function negatively impact high energy demanding tissues such as the brain. As such, neurons that are highly sensitive to ETC inhibition also rely strongly on glucose metabolism. Thus, we used mouse cortical neurons to determine the rates of glycolysis and PPP as glucose levels become limiting. Control and Piericidin treated neurons where cultured in media containing supraphysiological (25 mM), physiological (5 mM) or subphysiological concentrations of glucose (2,5 mM). […] Decreased PPP activity under low glucose (2,5 mM) correlated with a rapid decline in NADPH/NADP+ levels in CI-inhibited cells. Conversely, glucose availability had no effect on ATP levels at this timepoint.

[3] = test system: PC KO and ACLY KO cells; assay: Cell number / viability of PC KO and ACLY KO 143B cells
Experimental: All cell lines, 143b, HeLa, U2OS, and transmitochondrial cybrids carrying mutation in CI (ND2), CIII (CytB) or CIV (Cox2) subunits, were maintained in DMEM high glucose (HyClone), 10% FBS and 1% P/S at 37°C with 5% CO2. Mitochondrial mutant cells were cultured with supplementation of 50 µg/mL uridine. The selected cancer cell lines with different levels of malic enzyme (HCC15, KYSE410, CAKI1, J82, MDAMB453, Colo320, NCIH1703) were obtained from the DSMZ-German Collection of Microorganisms and Cell Cultures GmbH and cultured in the same DMEM 10% FBS medium. OCI-Lys3 and RCH-ACV cell lines (cells in suspension), were obtained from the same repository and cultured in RPMI 10% FBS medium. Transfections for gain- and loss-of-function studies were performed according to the manufacturer's instructions using the polyfect reagent (Qiagen, 301107). For cell number and proliferation experiments, cells were seeded in 12 or 6-well plates and allowed to proliferate for the specified durations. Subsequently, cells were trypsinized and quantified using a hemocytometer (NanoEnTek, DHC-N01). Cell viability was quantified using propidium iodide (PI; 50 µg/ml) staining.
Generation of knockout cell lines using CRISPR-Cas9 technology was performed with the lenti-CRISPR v2 vector (Addgene #52961). Guide sequences are: • sgGFPT1, 5-[…]-3 (SEQ ID NO: 1); • sgG6PD, 5-[…]-3 (SEQ ID NO: 2); • sgPHGDH, 5-[…]-3 (SEQ ID NO: 3); • sgMPC1, 5-[…]-3 (SEQ ID NO: 4) • sgPC, 5-CAGGCCCGGAACACACGGA-3 (SEQ ID NO: 5); • sgACLY, 5-[…]-3 (SEQ ID NO: 6); • sgME1, 5-[…]-3 (SEQ ID NO: 7).
To assess the relative contribution of PC and ACLY to cell death phenotype in ETC deficient cells upon PPP inhibition, we treated PC KO and ACLY KO cells with Piericidin, G6PDi or both. A massive reduction in cell viability was observed as early as 48 h in both PC KO and ACLY KO cells after dual inhibition (Figure 3E), which correlated with a significant decrease in the intracellular levels of malate (Figure 3F). […]

CC=C(C)C(O)C(C)C=C(C)C=CCC(C)=CCc1nc(OC)c(OC)c(O)c1C (centres unmarked) [Piericidin, Piericidin A]
NADH [1]: accumulation | intracellular levels of NADPH [1]: did not exert significant changes | PPP activity ([2]; 5 mM glucose, did not reach statistical significance): trend towards reduced PPP activity | PPP activity ([2]; limited glucose availability (2,5 mM), 100 nM, 16 h): prominent drop | PPP activity ([2]; neurons cultured in 25 mM glucose, 100 nM, 16 h): significantly upregulation | cell death or cell proliferation ([3]; ACLY KO cells): did not translate into increased cell death or impaired cell proliferation | proliferation ([3]; PC KO cells, 100 nM, 72 h): proliferated normally | sensitivity to ETC inhibition (cell number) ([3]; double ablation of PC and ACLY, 100 nM, 72 h): sensitize
